# Reference: BindingDB's records for PubMed 21964340
# Columns and labels:
# [1] = Inhibition of LAS1L (unknown origin) incubated for 1 hr by colloidal coomassie staining based LC-MS/MS analysis
# [2] = Binding affinity against NOLC1 (unknown origin) assessed as apparent dissociation constant incubated for 1 hr by colloidal coomassie staining based LC-MS/MS analysis
# [3] = Binding affinity against OGT (unknown origin) assessed as apparent dissociation constant incubated for 1 hr by colloidal coomassie staining based LC-MS/MS analysis
# [4] = Inhibition of ARL1 (unknown origin) incubated for 1 hr by colloidal coomassie staining based LC-MS/MS analysis
# [5] = Inhibition of NACC1 (unknown origin) incubated for 1 hr by colloidal coomassie staining based LC-MS/MS analysis
# [6] = Inhibition of RPN2 (unknown origin) incubated for 1 hr by colloidal coomassie staining based LC-MS/MS analysis
# [7] = Inhibition of UBA1 (unknown origin) incubated for 1 hr by colloidal coomassie staining based LC-MS/MS analysis
# [8] = Inhibition of RPS15A (unknown origin) incubated for 1 hr by colloidal coomassie staining based LC-MS/MS analysis
# [9] = Binding affinity against BRD9 (unknown origin) assessed as apparent dissociation constant incubated for 1 hr by colloidal coomassie staining based LC-MS/MS analysis
# [10] = Inhibition of PSMD11 (unknown origin) incubated for 1 hr by colloidal coomassie staining based LC-MS/MS analysis
# [11] = Inhibition of LENG8 (unknown origin) incubated for 1 hr by colloidal coomassie staining based LC-MS/MS analysis
# [12] = Inhibition of CSNK2A1 (unknown origin) incubated for 1 hr by colloidal coomassie staining based LC-MS/MS analysis
# [13] = Binding affinity against ELL (unknown origin) assessed as apparent dissociation constant incubated for 1 hr by colloidal coomassie staining based LC-MS/MS analysis
# [14] = Inhibition of SMCHD1 (unknown origin) incubated for 1 hr by colloidal coomassie staining based LC-MS/MS analysis
# [15] = Inhibition of RFC1 (unknown origin) incubated for 1 hr by colloidal coomassie staining based LC-MS/MS analysis
# [16] = Inhibition of INTS8 (unknown origin) incubated for 1 hr by colloidal coomassie staining based LC-MS/MS analysis
# [17] = molecular target: Sodium-dependent noradrenaline transporter (Homo sapiens) (UniProt P23975); test: Inhibition of human NET by scintillation proximity assay
# Chain of Sodium-dependent noradrenaline transporter (Homo sapiens) (P23975 whole entry, looked up): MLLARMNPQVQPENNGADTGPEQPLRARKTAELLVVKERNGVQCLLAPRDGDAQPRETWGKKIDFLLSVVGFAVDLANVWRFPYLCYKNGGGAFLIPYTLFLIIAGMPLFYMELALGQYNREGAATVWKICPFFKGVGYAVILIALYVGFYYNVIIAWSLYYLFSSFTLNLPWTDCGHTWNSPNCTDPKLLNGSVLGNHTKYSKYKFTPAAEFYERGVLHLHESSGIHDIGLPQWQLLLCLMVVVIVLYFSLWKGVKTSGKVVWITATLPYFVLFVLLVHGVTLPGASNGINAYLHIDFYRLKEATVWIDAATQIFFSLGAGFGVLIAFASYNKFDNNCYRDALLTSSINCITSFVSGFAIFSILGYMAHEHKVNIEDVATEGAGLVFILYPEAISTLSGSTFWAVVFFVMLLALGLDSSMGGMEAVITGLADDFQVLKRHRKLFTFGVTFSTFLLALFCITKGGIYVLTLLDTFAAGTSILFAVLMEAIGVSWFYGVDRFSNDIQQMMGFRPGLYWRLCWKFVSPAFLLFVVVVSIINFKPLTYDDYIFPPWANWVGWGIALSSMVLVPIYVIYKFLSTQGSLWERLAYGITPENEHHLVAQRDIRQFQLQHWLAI
# [18] = Inhibition of PUS1 (unknown origin) incubated for 1 hr by colloidal coomassie staining based LC-MS/MS analysis
# [19] = Binding affinity against PSME3 (unknown origin) assessed as apparent dissociation constant incubated for 1 hr by colloidal coomassie staining based LC-MS/MS analysis
# [20] = Inhibition of SFRS10 (unknown origin) incubated for 1 hr by colloidal coomassie staining based LC-MS/MS analysis
# [21] = Binding affinity against CCT2 (unknown origin) assessed as apparent dissociation constant incubated for 1 hr by colloidal coomassie staining based LC-MS/MS analysis
# [22] = Inhibition of CORO1A (unknown origin) incubated for 1 hr by colloidal coomassie staining based LC-MS/MS analysis
# [23] = Inhibition of POLR2B (unknown origin) incubated for 1 hr by colloidal coomassie staining based LC-MS/MS analysis
# [24] = Inhibition of ABCF1 (unknown origin) incubated for 1 hr by colloidal coomassie staining based LC-MS/MS analysis
# [25] = Inhibition of KPNA1 (unknown origin) incubated for 1 hr by colloidal coomassie staining based LC-MS/MS analysis
# [26] = Binding affinity against PWWP2B (unknown origin) assessed as apparent dissociation constant incubated for 1 hr by colloidal coomassie staining based LC-MS/MS analysis
# [27] = Binding affinity against TUBA4A (unknown origin) assessed as apparent dissociation constant incubated for 1 hr by colloidal coomassie staining based LC-MS/MS analysis
# [28] = Inhibition of WDR33 (unknown origin) incubated for 1 hr by colloidal coomassie staining based LC-MS/MS analysis
# [29] = Inhibition of SF3B14 (unknown origin) incubated for 1 hr by colloidal coomassie staining based LC-MS/MS analysis
# [30] = Binding affinity against SETD1B (unknown origin) assessed as apparent dissociation constant incubated for 1 hr by colloidal coomassie staining based LC-MS/MS analysis
# [31] = Binding affinity against DSG1 (unknown origin) assessed as apparent dissociation constant incubated for 1 hr by colloidal coomassie staining based LC-MS/MS analysis
# [32] = Inhibition of CCNL2 (unknown origin) incubated for 1 hr by colloidal coomassie staining based LC-MS/MS analysis
# [33] = Binding affinity against GTF2I (unknown origin) assessed as apparent dissociation constant incubated for 1 hr by colloidal coomassie staining based LC-MS/MS analysis
# [34] = Inhibition of PRDX6 (unknown origin) incubated for 1 hr by colloidal coomassie staining based LC-MS/MS analysis
# [35] = Inhibition of HIST1H2BA (unknown origin) incubated for 1 hr by colloidal coomassie staining based LC-MS/MS analysis
# [36] = Inhibition of TKT (unknown origin) incubated for 1 hr by colloidal coomassie staining based LC-MS/MS analysis
# [37] = Inhibition of PTBP1 (unknown origin) incubated for 1 hr by colloidal coomassie staining based LC-MS/MS analysis
# [38] = Inhibition of OGT (unknown origin) incubated for 1 hr by colloidal coomassie staining based LC-MS/MS analysis
# [39] = Binding affinity against RFC1 (unknown origin) assessed as apparent dissociation constant incubated for 1 hr by colloidal coomassie staining based LC-MS/MS analysis
# [40] = Inhibition of PIAS4 (unknown origin) incubated for 1 hr by colloidal coomassie staining based LC-MS/MS analysis
structure (smiles),measurement,setting,value
CCNC(=O)C[C@@H]1N=C(c2ccc(Cl)cc2)c2cc(OC)ccc2-n2c(C)nnc21,IC50,[1],270 nM
same,Kd,[2],63 nM
same,Kd,[3],223 nM
same,IC50,[4],> 10000 nM
same,IC50,[5],> 10000 nM
same,IC50,[6],> 10000 nM
same,IC50,[7],> 10000 nM
same,IC50,[8],1390 nM
same,Kd,[9],20 nM
same,IC50,[10],60 nM
same,IC50,[11],100 nM
same,IC50,[12],120 nM
same,Kd,[13],66 nM
same,IC50,[14],1070 nM
same,IC50,[15],50 nM
same,IC50,[16],> 10000 nM
same,IC50,[17],> 100000 nM
same,IC50,[18],> 10000 nM
same,Kd,[19],84 nM
same,IC50,[20],230 nM
same,Kd,[21],1620 nM
same,IC50,[22],> 10000 nM
same,IC50,[23],150 nM
same,IC50,[24],> 10000 nM
same,IC50,[25],30 nM
same,Kd,[26],25 nM
same,Kd,[27],102 nM
same,IC50,[28],1090 nM
same,IC50,[29],> 10000 nM
same,Kd,[30],45 nM
same,Kd,[31],4620 nM
same,IC50,[32],50 nM
same,Kd,[33],7550 nM
same,IC50,[34],> 10000 nM
same,IC50,[35],> 10000 nM
same,IC50,[36],5270 nM
same,IC50,[37],> 10000 nM
same,IC50,[38],480 nM
same,Kd,[39],54 nM
same,IC50,[40],> 10000 nM
